Where a name gives a salt, the structure may show the parent alone.
Key:
[1] = biological target: recombinant human 5-HT6 receptors (Homo sapiens (Human), UniProt P50406); assay: Competitive radioligand binding ([3H] Lysergic acid diethylamide) to serotonin 5-HT6 receptors, HeLa cell membranes; conditions: for IC50: 1.5 nM [3H] Lysergic acid diethylamide, 120 min at 37° C.
Description: Screening of the disclosed compounds for their potential ability to interact with serotonin 5-HT6 receptors was carried out by the method of radioligand binding. For this purpose membrane species were prepared from HeLa cells expressing recombinant human 5-HT6 receptors, by means of cells homogenization in glass homogenizer with subsequent separation of plasmatic membranes from cell nucli, mitochondria's and cell wreckages by differential centrifugation. Determination of tested compounds binding to 5-HT6 receptors was carried out according to the method described in [Monsma F J Jr, Shen Y, Ward R P, Hamblin M W and Sibley D R, Cloning and expression of a novel serotonin receptor with high affinity for tricyclic psychotropic drugs. Mol. Pharmacol. 43:320-327, 1993]. […] After the incubation the samples were filtered in vacuo on glass-microfiber filters G/F (Millipor, USA), filters were washed three times with cold solution of the medium and radioactivity was measured by scintillation counter MicroBeta 340 (PerkinElmer, USA). […] Methiothepin was used as a positive control. Binding of the tested compounds with the receptor was determined by their ability to displace the radioligand and was expressed in percent of displacement. The percent of displacement was calculated according to the following equation:
[formula] wherein: TA—was overall radioactivity in the presence of radioligand only, CA—was radioactivity in the presence of radioligand and tested compound and NA—was radioactivity in the presence of radioligand and Serotonin (5 μM).

mice = assay: Passive Avoidance of mice in the Shuttle Chamber, memory disturbed by MK-801; assay type: in vivo; conditions: MK-801 0.1 mg/kg, injected 30 minutes before training

Chain of recombinant human 5-HT6 receptors (P50406 whole entry): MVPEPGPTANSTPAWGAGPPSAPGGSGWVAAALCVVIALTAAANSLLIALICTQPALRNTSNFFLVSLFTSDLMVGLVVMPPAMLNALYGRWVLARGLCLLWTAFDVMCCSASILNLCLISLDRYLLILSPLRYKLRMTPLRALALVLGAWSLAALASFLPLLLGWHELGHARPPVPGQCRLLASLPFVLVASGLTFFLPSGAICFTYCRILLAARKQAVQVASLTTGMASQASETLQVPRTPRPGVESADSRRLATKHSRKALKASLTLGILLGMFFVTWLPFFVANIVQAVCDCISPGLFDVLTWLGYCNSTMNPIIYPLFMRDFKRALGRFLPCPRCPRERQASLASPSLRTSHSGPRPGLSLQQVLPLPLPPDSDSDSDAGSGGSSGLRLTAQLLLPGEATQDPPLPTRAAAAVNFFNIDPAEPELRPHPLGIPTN

IC50 [1] [µM] | Ki ([1]; Ki=IC50/(1+[L]/KD)) [µM] | SMILES | nootropic effect (enhancement of memory disturbed by MK-801) (mice)
0.00461 | – | Cc1nn2c3c(cnc2c1S(=O)(=O)c1ccccc1)CNCC3 [1.1(1)] | –
– | – | Cc1nn2c3c(cnc2c1S(=O)(=O)c1ccccc1)CN(C)CC3 [1.1(3).HCl] | ability of active ingredient 1.1(3).HCl to produce nootropic effect
0.801 | 0.372 | CSc1nn2cc3c(nc2c1S(=O)(=O)c1ccccc1)CCN(C)C3 [2.2(2)] | –
> 1 | – | CSc1nn2cc3c(nc2c1S(=O)(=O)c1ccc(F)cc1)CCN(C)C3 [2.2(3)] | –

From patent US8569318B2, “Tetrahydro-pyrazolo[1,5-a]pyrido-pyrimidines as antagonists of serotonin 5-HT6 receptors, methods for the production and use thereof” (priority 2008, dated 2013)
